Laboratory results from US12171766B2, “Methods of treating patients suffering from brain injury and methods of increasing the value of the extended Glasgow Outcome Scale of patients suffering from brain injury” (VERINOS OPERATIONS GMBH, priority 2021, dated 2024).

Experiments:
[1] = NOSTRA phase III trial: exposure control (pharmacokinetics), samples after end of infusion and 12 hours after end of infusion; format: in vivo, human; conditions: exposure control samples; no utilizable values for parent
Procedure: An exposure control was performed with samples collected after end of infusion and 12 hours after end of infusion. Due to the high sensibility of Ronopterin to oxidation, no utilizable values could be obtained for Ronopterin and, therefore, the first metabolite, 4-amino-dihydrobiopterin, was used as a surrogate. The mean absolute concentration for the first metabolite of Ronopterin was 1071 ng/mL at the end of the infusion and 476 ng/mL 12 hours later (56% elimination). The mean absolute value for the second Ronopterin metabolite was 52 ng/mL at the end of the infusion and 37 ng/mL 12 hours after end of infusion.

[2] = NOSTRA phase III trial: safety and adverse event analyses; format: in vivo
Procedure: Safety analyses was performed using standard descriptive methods.
The total number of treatment-emergent adverse events (TEAE) and the total number of patients with TEAEs, the total number of TEAEs related to the study drug (certain, probable, possible), the total number of patients with TEAEs related to the study drug, the total number of TEAEs and the total number of patients with serious TEAEs, the total number of patients with TEAEs leading to discontinuation of study treatment and the total number of patients with TEAEs leading to death were summarised by treatment arm.

animal models of TBI = conditions: mice, Terpolilli et al. 2009; cited from earlier work
[3] = system: Moderate and Severe Traumatic Brain Injury; conditions: cited from earlier work
[4] = may be due to over-reporting of some centres

Q: With `CC(O)C(O)C1CNc2nc(N)nc(N)c2N1` [Ronopterin, 4-Amino-(6R,S)-5,6,7,8-tetrahydro-L-biopterin] as the compound, how does the sensibility to oxidation [1] read?
A: high

Q: And the “number of renal AEs” value ([2]; Ronopterin:placebo 11:3)?
A: 11

Q: What about the “tolerability of study treatment” value ([2]; TBI patients, 17 mg/kg over 48 hours) of the same compound?
A: well-tolerated

Q: And the “number of related AE/SAEs” value ([2]; between the groups (Ronopterin, placebo))?
A: low and comparable

Q: And the “number of adverse events (AEs) and serious adverse events (SAEs) compared to placebo” value ([2]; in vivo)?
A: slightly higher

Q: What about the “ICP increased, number of patients” value [2, 4] of the same compound?
A: 27 patients

Q: And the “ICP increased, proportion of patients” value [2, 4]?
A: 23.9%

Q: What about the “effect in animal models of TBI” value (animal models of TBI) of the same compound?
A: beneficial

Q: And the “effect of infusion during the initial 12 hours after TBI” value ([3]; Phase IIa trial [Stover])?
A: benefits

Q: And the “effect in phase II clinical trial” value ([3]; Stover et al. 2014 (NOSTRA phase IIa))?
A: beneficial
